Laboratory results as given in patent publication US6469005B1, “Propargylether derivatives” (priority 1999, dated 2002).

Columns and labels:
[1] = system: Phytophthora; assay: D-2: Action against Phytophthora on tomato plants (residual-protective and systemic action); format: in vivo; details: 0.02% active ingredient, sprayed (infected after 48 hours, evaluated after 5 days) or watered, systemic (infected after 96 hours, evaluated after 4 days)
Procedure: D-2: Action Against Phytophthora on Tomato Plants
(§1) a) Residual-protective Action
(§2) After a cultivation period of 3 weeks, tomato plants are sprayed with a spray mixture (0.02% active ingredient) prepared from a wettable powder formulation of the test compound. After 48 hours, the treated plants are infected with a sporangia suspension of the fungus. Fungus infestation is evaluated after incubation of the infected plants for 5 days at 90-100% relative humidity and +20° C.
as §2, with “watered” for “sprayed”, “ingredient based on the volume of the soil)” for “ingredient)”, “compound. […]” for “compound.”, “96” for “48”, “4” for “5”

[2] = system: Plasmopara viticola; assay: D-1: Action against Plasmopara viticola on vines (residual-protective and residual-curative action); format: in vivo; details: vine seedlings, spray mixture 0.02% active ingredient; protective (infected after 24 hours) or curative (sprayed 24 hours after infection); evaluated after 6 days
Procedure: D-1: Action Against Plasmopara viticola on Vines a) Residual-Protective Action
Vine seedlings are sprayed at the 4- to 5-leaf stage with a spray mixture (0.02% active ingredient) prepared from a wettable powder formulation of the test compound. After 24 hours, the treated plants are infected with a sporangia suspension of the fungus. Fungus infestation is evaluated after incubation for 6 days at 95-100% relative humidity and +20° C. […]
b) Residual-curative Action
Vine seedlings are infected at the 4- to 5-leaf stage with a sporangia suspension of the fungus. After incubation for 24 hours in a humidity chamber at 95-100% relative humidity and +20° C., the infected plants are dried and sprayed with a spray mixture (0.02% active ingredient) prepared from a wettable powder formulation of the test compound. After the spray coating has dried, the treated plants are placed in the humidity chamber again.
Fungus infestation is evaluated 6 days after infection.

[3] = system: Phytophthora; assay: D-3: Action against Phytophthora on potato plants (residual-protective and systemic action); format: in vivo; details: potato plants (Bintje variety), 0.02% active ingredient; sprayed or watered (systemic), infected after 48 hours, evaluated after 4 days
Procedure: ID-3: Action Against Phytophthora on Potato Plants
as §1
(§3) 2-3 week old potato plants (Bintje variety) are sprayed with a spray mixture (0.02% active ingredient) prepared from a wettable powder formulation of the test compound. After 48 hours, the treated plants are infected with a sporangia suspension of the fungus. Fungus infestation is evaluated after incubation of the infected plants for 4 days at 90-100% relative humidity and +20° C.
as §3, with “watered” for “sprayed”, “ingredient based on the volume of the soil)” for “ingredient)”, “compound. […]” for “compound.”, “C. Fungal infestation is effectively controlled with compounds of Tables 1 to 47.” for “C.”

SMILES | melting point [°C] | fungal infestation (Phytophthora on tomato plants) [1] | fungal infestation (Plasmopara viticola on vines) [2] | fungal infestation (Phytophthora on potato plants) [3]
C#CCOc1ccc(CCNC(=O)C(=O)c2ccc(-c3ccc(Cl)cc3)cc2)cc1OC | 122 to 124 |  |  | 
COc1cc(CCNC(=O)[C@H](NC(=O)OC(C)(C)C)C(C)C)ccc1OCC#Cc1ccc(Cl)cc1 (stereo in doubt) | 141 to 142 |  |  | 
C#CCOc1ccc(CCNC(=O)C(O)c2ccc(Cl)c(Cl)c2)cc1OC (stereo not drawn) [Compound E1.01, 2-(3,4-Dichloro-phenyl)-2-hydroxy-N-[2-(3-methoxy-4-prop-2-ynyloxy-phenyl)-ethyl]-acetamide] |  | completely inhibit fungal infestation | completely inhibit fungal infestation | completely inhibit fungal infestation
CCC#CCOc1ccc(CCNC(=O)C(O)c2ccc(Cl)c(Cl)c2)cc1OC (stereo not drawn) [Compound E1.02, 2-(3,4-Dichloro-phenyl)-2-hydroxy-N-[2-(3-methoxy-4-pent-2-ynyloxy-phenyl)-ethyl]-acetamide] |  | completely inhibit fungal infestation | completely inhibit fungal infestation | completely inhibit fungal infestation
CCC#CCOc1ccc(CCNC(=O)C(=O)c2ccc(Cl)c(Cl)c2)cc1OC [Compound E2.02, 2-(3,4-Dichloro-phenyl)-N-[2-(3-methoxy-4-pent-2-ynyloxy-phenyl)-ethyl]-2-oxo-acetamide] | 94 to 95 | completely inhibit fungal infestation | completely inhibit fungal infestation | 
C#CCOc1ccc(CCNC(=O)C(O)c2ccc(-c3ccc(C(F)(F)F)cc3)cc2)cc1OC (stereo not drawn) [Compound E3.03, 2-(4′-Trifluoro-biphenyl-4-yl)-2-hydroxy-N-[2-(3-methoxy-4-prop-2-ynyloxy-phenyl)-ethyl]-acetamide] |  | completely inhibit fungal infestation | completely inhibit fungal infestation | 
C#CCOc1ccc(CCNC(=O)C(OC(=O)C(=O)OC)c2ccc(Br)cc2)cc1OC (stereo not drawn) [Compound E4.01, 2-(4-Bromo-phenyl)-2-methyloxalyloxy-N-[2-(3-methoxy-4-prop-2-ynyloxy-phenyl)-ethyl]-acetamide] |  | completely inhibit fungal infestation | completely inhibit fungal infestation | 
